Reference: ChEMBL document CHEMBL1201862, “PubChem BioAssay data set” (2004)
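Test compounds were applied to cells in 96-well plates for 48 hours at 5 doses. GI50 = concentration required for 50% inhibition of growth.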 The source made the active and inactive calls. No stated cut-off is given here; in the data, active = GI50 up to about 1.1 µM and inactive = higher.

Columns and labels:
Assay in all cases: growth of human tumour cells (NCI), 48 h
[1] = tested on: NCI-H23
[2] = tested on: LXFL 529
[3] = tested on: NCI-H226
[4] = tested on: HOP-62
[5] = tested on: MOLT-4
[6] = tested on: HOP-92
[7] = tested on: HOP-18
[8] = tested on: COLO 205
[9] = tested on: Malme-3M
[10] = tested on: UO-31
[11] = tested on: SF-539
[12] = tested on: HT-29
[13] = tested on: EKVX
[14] = tested on: SW-620
[15] = tested on: SK-MEL-28
[16] = tested on: SR
[17] = tested on: MCF7
[18] = tested on: BT-549
[19] = tested on: Hs-578T
[20] = tested on: MDA-N

Measured: GI50

NC(=O)CCC(NC(=O)C(F)(F)F)C(=O)O (configuration not stated)
inactive: [1] > 100 µM | [2] > 100 µM | [3] > 100 µM | [4] > 100 µM | [5] > 100 µM | [6] > 100 µM | [7] > 100 µM | [8] > 100 µM | [9] > 100 µM | [10] > 100 µM | [11] > 100 µM | [12] > 100 µM | [13] > 100 µM | [14] > 100 µM | [15] > 100 µM

c1cnc2c(c1)-n1cccc1C1(CCSCC1)NN2
inactive: [16] 61.8 µM | [3] 59 µM | [4] > 100 µM | [5] 50.2 µM | [7] 26 µM | [8] > 100 µM | [9] > 100 µM | [10] 32.4 µM | [11] > 100 µM | [12] > 100 µM | [13] > 100 µM | [14] > 100 µM | [15] > 100 µM

CCCCCCCCCCCCCC(=O)NCO
inactive: [1] > 100 µM | [2] > 100 µM | [3] > 100 µM | [4] > 100 µM | [6] > 100 µM | [7] > 100 µM | [8] > 100 µM | [9] > 100 µM | [10] 99.3 µM | [11] > 100 µM | [12] > 100 µM | [13] > 100 µM | [14] > 100 µM | [15] > 100 µM

CC(=O)NNc1nc(C)c(C(=O)/C=C/c2ccc(/C=C/C(=O)c3sc(NNC(C)=O)nc3C)cc2)s1
inactive: [1] > 100 µM | [16] > 100 µM | [2] > 100 µM | [3] > 100 µM | [4] > 100 µM | [5] > 100 µM | [8] > 100 µM | [9] > 100 µM | [10] > 100 µM | [11] > 100 µM | [12] > 100 µM | [13] 57.3 µM | [14] > 100 µM | [15] > 100 µM

CC/C=C\C/C=C\C1CC(=O)NCCCNCCCCN1 (configuration not stated)
inactive: [1] > 100 µM | [16] > 100 µM | [2] > 100 µM | [3] 59.7 µM | [4] > 100 µM | [6] > 100 µM | [8] > 100 µM | [9] 15.6 µM | [10] > 100 µM | [11] > 100 µM | [12] > 100 µM | [13] > 100 µM | [14] > 100 µM | [15] > 100 µM

CC(=O)c1ccccc1NC(=O)C(=O)C(C(=O)c1ccccc1-c1ccccc1)C1OC(=O)c2ccccc21 (configuration not stated)
inactive: [1] 16.5 µM | [16] 21.6 µM | [2] 15.5 µM | [3] 14.9 µM | [4] 20.1 µM | [5] 24.8 µM | [7] 15.2 µM | [8] 23.2 µM | [9] 15.5 µM | [10] 18.2 µM | [11] 17.8 µM | [12] 26.9 µM | [13] 29.7 µM | [14] 34.3 µM

COC(=O)C1CCc2nnc(-c3cccnc3)n21 (configuration not stated)
inactive: [16] > 100 µM | [2] > 100 µM | [3] > 100 µM | [4] > 100 µM | [5] > 100 µM | [7] > 100 µM | [8] > 100 µM | [9] > 100 µM | [10] > 100 µM | [11] > 100 µM | [13] > 100 µM | [14] > 100 µM | [15] > 100 µM

Brc1ccc(C[P+]2(c3ccccc3)CCCCC2)cc1.[O-][Cl+3]([O-])([O-])[O-]
inactive: [1] 96.2 µM | [16] 38.1 µM | [2] 25.1 µM | [3] > 100 µM | [4] > 100 µM | [5] > 100 µM | [7] > 100 µM | [8] 20.5 µM | [9] 58.5 µM | [10] > 100 µM | [11] 82.4 µM | [12] 38.8 µM | [13] > 100 µM | [14] 79.1 µM | [15] 63.7 µM

Clc1ccc(OCc2nnc3n2N=C(c2ccccc2)CS3)c(Cl)c1
inactive: [1] 5.66 µM | [16] 4.73 µM | [2] 5.6 µM | [3] 9.84 µM | [4] > 10 µM | [5] 3.23 µM | [6] 4.21 µM | [9] > 100 µM | [10] 2.14 µM | [11] 12.6 µM | [12] 5.74 µM | [14] > 100 µM | [15] > 100 µM

Cc1c(Cl)ccc2c1NC(=O)C2(O)C(C(=O)c1ccccc1)c1ccccc1 (configuration not stated)
inactive: [1] 4.98 µM | [16] 27.3 µM | [2] 57.3 µM | [3] 88.5 µM | [4] > 100 µM | [5] 22.9 µM | [7] 52.4 µM | [8] > 100 µM | [9] 93.3 µM | [10] 76.6 µM | [11] 74.6 µM | [12] 29.9 µM | [13] 43.3 µM | [14] 42.4 µM | [15] 94.6 µM

CC(=O)Nc1ccc(S(=O)(=O)N/N=C(\C)CN2C(=O)c3ccccc3C2=O)cc1
inactive: [1] > 100 µM | [16] > 100 µM | [2] > 100 µM | [3] > 100 µM | [4] > 100 µM | [5] > 100 µM | [7] > 100 µM | [8] > 100 µM | [9] > 100 µM | [10] > 100 µM | [11] > 100 µM | [12] > 100 µM | [13] > 100 µM | [14] > 100 µM

O=C1/C(=C/c2ccc(Cl)cc2)COc2ccc(Br)cc21
inactive: [1] > 100 µM | [2] > 100 µM | [4] > 100 µM | [5] > 100 µM | [6] > 100 µM | [7] 11.6 µM | [8] > 100 µM | [9] > 100 µM | [10] 80.4 µM | [11] > 100 µM | [12] > 100 µM | [13] > 100 µM | [14] > 100 µM | [15] > 100 µM

COC(=O)CC(NC(=O)OCc1ccccc1)C(C(=O)OCc1ccccc1)C(C)(OC)OC (configuration not stated)
inactive: [1] 17.4 µM | [16] 8.81 µM | [2] 5.69 µM | [3] 22.6 µM | [4] 44.9 µM | [5] 5.94 µM | [8] 16.9 µM | [9] 28 µM | [10] 14.6 µM | [11] 29.2 µM | [12] 34.6 µM | [13] 29.7 µM | [14] 32.9 µM | [15] 52.1 µM

O=C1C=C(Nc2ccc(Cl)cc2Cl)c2ccccc2C1=O
inactive: [1] 21.7 µM | [16] 29.4 µM | [2] 27.2 µM | [3] 28.5 µM | [4] 30.5 µM | [5] 88.1 µM | [6] 21.2 µM | [8] > 100 µM | [9] 24.9 µM | [10] 43.1 µM | [11] > 100 µM | [12] > 100 µM | [13] > 100 µM | [14] 39.5 µM | [15] 59.8 µM

COc1c(C)n(CCO)ccc1=O
inactive: [16] > 100 µM | [2] > 100 µM | [3] > 100 µM | [4] > 100 µM | [5] > 100 µM | [6] > 100 µM | [8] > 100 µM | [9] > 100 µM | [10] > 100 µM | [12] > 100 µM | [13] > 100 µM | [14] > 100 µM | [15] > 100 µM

COC(=O)C(Br)C1CCc2ccccc21 (configuration not stated)
inactive: [1] > 100 µM | [16] 42.8 µM | [2] > 100 µM | [3] 46.3 µM | [4] > 100 µM | [5] 68.7 µM | [6] > 100 µM | [7] 65.3 µM | [8] > 100 µM | [9] > 100 µM | [10] > 100 µM | [12] > 100 µM | [14] > 100 µM | [15] > 100 µM

N#CCC(=O)Nc1cccc(C(F)(F)F)c1
inactive: [1] > 100 µM | [16] > 100 µM | [2] > 100 µM | [3] > 100 µM | [4] > 100 µM | [5] > 100 µM | [7] 29.2 µM | [8] > 100 µM | [9] > 100 µM | [10] > 100 µM | [11] > 100 µM | [12] > 100 µM | [13] > 100 µM | [14] > 100 µM | [15] > 100 µM

Cc1ccc(NC(=O)C(=O)Cc2cccc[n+]2[O-])cc1C
inactive: [1] > 100 µM | [16] > 100 µM | [2] > 100 µM | [3] > 100 µM | [4] > 100 µM | [5] > 100 µM | [7] > 100 µM | [8] > 100 µM | [9] > 100 µM | [10] > 100 µM | [11] > 100 µM | [12] > 100 µM | [13] > 100 µM | [14] > 100 µM | [15] > 100 µM

O=c1cc(NNc2cccc3ccccc23)[nH]c(=O)[nH]1
inactive: [1] 15.3 µM | [16] 2.61 µM | [3] 13 µM | [17] 1.69 µM | [4] 17 µM | [5] 17.7 µM | [18] 16.4 µM | [6] 17.4 µM | [8] 17.3 µM | [9] 17.8 µM | [19] 26.2 µM | [10] 16.3 µM | [11] 15.6 µM | [12] 17.6 µM | [13] 14.6 µM | [20] 12.1 µM | [14] 20 µM | [15] 18.6 µM
